Test results from patent publication US7897778B2, “Benzamide compounds” (AstraZeneca, priority 2004, dated 2011).

Key:
HCT116 cells = experiment: In vitro assay of inhibition of proliferation in whole cells (MTS); type: cell-based; settings: Homo sapiens, HCT-116, 72 hours treatment, read-out: Test (b) IC50
Procedure: (b) In Vitro Assay of Inhibition of Proliferation in Whole Cells
Inhibition of proliferation in whole cells was assayed using the Promega cell titer 96 aqueous proliferation assay (Promega #G5421). The HCT116 cells were seeded in 96 well plates at 1×10^3 cells/well, and allowed to adhere overnight. They were treated with inhibitors for 72 hours. The 20 μl of the tetrazolium dye MTS was added to each well and the plates were reincubated for 3 hours. Absorbance was then measured on a 96 well plate reader at […]. The IC50 values for HDAC inhibitors were determined by performing dose response curves with individual compounds and determining the concentration of inhibitor producing fifty percent decrease in maximal signal (diluent control).

recombinant human HDAC1 = target: T1, recombinant human HDAC1 (Homo sapiens, UniProt Q13547); experiment: In vitro enzyme assay of recombinant HDAC1; type: biochemical; settings: recombinant human HDAC1 produced in Hi5 insect cells; acetylated histone H4 peptide, Fluor de Lys; read-out: Test (a) IC50
T1 construct: FLAG (C); made in house; host or cells: Hi5 insect cells
T1 sequence (Q13547 whole entry): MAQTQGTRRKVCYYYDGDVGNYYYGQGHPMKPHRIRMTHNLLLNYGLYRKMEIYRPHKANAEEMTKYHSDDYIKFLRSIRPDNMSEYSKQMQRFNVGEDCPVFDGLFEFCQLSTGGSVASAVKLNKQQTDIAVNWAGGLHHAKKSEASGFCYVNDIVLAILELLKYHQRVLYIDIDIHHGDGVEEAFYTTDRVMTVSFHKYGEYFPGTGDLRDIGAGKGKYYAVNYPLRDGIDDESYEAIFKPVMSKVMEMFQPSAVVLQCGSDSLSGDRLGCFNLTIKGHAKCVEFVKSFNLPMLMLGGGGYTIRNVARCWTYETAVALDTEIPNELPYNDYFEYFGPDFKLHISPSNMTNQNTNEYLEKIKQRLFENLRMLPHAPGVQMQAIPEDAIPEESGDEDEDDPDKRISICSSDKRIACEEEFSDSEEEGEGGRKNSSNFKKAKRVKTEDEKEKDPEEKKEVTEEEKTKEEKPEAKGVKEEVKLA
Procedure: (a) In Vitro Enzyme Assay of recombinant HDAC1
HDAC inhibitors were screened against recombinant human HDAC1 produced in Hi5 insect cells. The enzyme was cloned with a FLAG tag at the C-terminal of the gene and affinity purified using Anti-FLAG M2 agarose from SIGMA (A2220).
The deacetylase assays were carried out in a 50 μl reaction. HDAC1 (75 ng of enzyme) diluted in 15 μl of reaction buffer (25 mM Tris HCl (pH 8), 137 mM NaCl, 2.7 mM KCl, 1 mM MgCl2) was mixed with either buffer alone (10 μl) or buffer containing compound (10 μl) for 30 minutes at ambient temperature. The 25 μM acetylated histone H4 peptide (KI 174 Biomol) diluted in 25 μl of buffer was then added to the reaction and incubated for one hour at ambient temperature. The reaction was stopped by addition of an equal volume (50 μl) Fluor de Lys developer (Biomol) containing Trichostatin A at 2 μM. The reaction was allowed to develop for 30 minutes at ambient temperature and then fluorescence measured at an excitation wavelength of 360 nm and an emission wavelength of 465 nm. The IC50 values for HDAC enzyme inhibitors were determined by performing dose response curves with individual compounds and determining the concentration of inhibitor producing fifty percent decrease in the maximal signal (diluent control).

IC50 (HCT116 cells)	IC50 (recombinant human HDAC1)	SMILES
211 nM	3 nM	N#Cc1cc(CN2CCC(c3ccccn3)C2)cnc1-c1ccc(C(=O)Nc2ccccc2N)cc1 (centres unmarked) [2 (10), N-(2-aminophenyl)-4-{3-cyano-5-[(3-pyridin-2-ylpyrrolidin-1-yl)methyl]pyridin-2-yl}benzamide]
218 nM	6 nM	C[C@@H]1CC[C@@H](C)N1Cc1cnc(-c2ccc(C(=O)Nc3ccccc3N)cc2)c(C#N)c1 [2 (12), N-(2-aminophenyl)-4-(3-cyano-5-{[(2R,5R)-2,5-dimethylpyrrolidin-1-yl]methyl}pyridin-2-yl)benzamide]
287 nM	12 nM	CC(C)N(C)Cc1cnc(-c2ccc(C(=O)Nc3ccccc3N)cc2)c(C#N)c1 [5 (15), N-(2-aminophenyl)-4-(3-cyano-5-{[isopropyl(methyl)amino]methyl}pyridin-2-yl)benzamide]
289 nM	13 nM	N#Cc1cccnc1-c1ccc(C(=O)Nc2ccccc2N)cc1 [Example 1, N-(2-aminophenyl)-4-(3-cyanopyridin-2-yl)benzamide]
